Results published in patent US12514858B2, “CD38 inhibitors” (Astellas Engineered Small Molecules US, Incorporated, priority 2020, dated 2026).

Molecular target: Human CD38 (Homo sapiens (Human), UniProt P28907)
Assay: Determination of IC50 against human CD38 (CD38 Inhibitor Screening Assay Kit, glycohydrolase activity, fluorescence)
Format: biochemical
Settings: CD38 hydrolase enzyme, 30 min preincubation at room temperature, F-NAD substrate, excitation 300 nm, emission 410 nm; read-out: hCD38 IC50
Description: CD38 hydrolase buffer (4×) was thawed on ice and 1×CD38 hydrolase buffer was prepared by diluting 4×CD38 hydrolase buffer with water. CD38 hydrolase enzyme was diluted to […] with 1×CD38 hydrolase buffer (10 ng/well). Master mix was prepared by mixing equal volumes of water and CD38 hydrolase buffer (4×) and 10 μl of the mix was added to all the wells. Following master mix addition, 10 μl of the inhibitors and 20 μl of CD38 hydrolase enzyme were added to the wells. For wells designated blank, 10 μl and 20 μl of 1× CD38 hydrolase buffer was added respectively in place of […]. The plate was covered and incubated 30 min at room temperature with slow shaking at 400 rpm. After 30 min incubation, the plate was removed and 10 μl of diluted F-NAD substrate was added to all the wells. The plate is incubated for 10 min, spun at 1200 rpm for 30 secs to remove bubbles and read in Tecan Spark using a fluorometer setting of excitation 300 nm and emission 410 nm. The reading for the blank was subtracted from all the values. IC50 for the test compounds were determined by using Graphpad prism software v7.0.

Chain of Human CD38 (P28907 whole entry): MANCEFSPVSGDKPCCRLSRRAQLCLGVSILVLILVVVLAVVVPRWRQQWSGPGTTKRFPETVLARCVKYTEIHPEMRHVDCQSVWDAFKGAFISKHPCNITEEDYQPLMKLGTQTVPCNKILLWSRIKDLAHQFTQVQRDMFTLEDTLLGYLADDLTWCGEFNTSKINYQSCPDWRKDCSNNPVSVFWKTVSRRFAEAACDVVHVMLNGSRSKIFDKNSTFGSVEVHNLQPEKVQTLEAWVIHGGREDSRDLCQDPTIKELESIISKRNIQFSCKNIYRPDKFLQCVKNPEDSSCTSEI

Structure (SMILES) | IC50 [nM]
COCCO[C@H]1CC[C@H](NC(=O)c2cc(C(C)(C)O)cc(-n3ccnc3)n2)CC1 [Ex. 40, 4-(2-Hydroxypropan-2-yl)-6-(1H-imidazol-1-yl)-N-((1r,4r)-4-(2-methoxyethoxy)cyclohexyl)picolinamide] | 1900
C=Cc1cc(C(=O)N[C@H]2CC[C@H](OCCOC)CC2)nc(-n2ccnc2)c1 [Ex. 57, 6-(1H-imidazol-1-yl)-N-((1r,4r)-4-(2-methoxyethoxy)cyclohexyl)-4-vinylpicolinamide] | 40
COCCO[C@H]1CC[C@H](NC(=O)c2cc(C(F)(F)F)cc(-n3ccnc3)n2)CC1 [Ex. 19, 6-(1H-imidazol-1-yl)-N-((1r,4r)-4-(2-methoxyethoxy)cyclohexyl)-4-(trifluoromethyl)picolinamide] | 45.9
COCCO[C@H]1CC[C@H](NC(=O)c2cc(Cl)cc(-n3ccnc3)n2)CC1 [Ex. 18, 4-chloro-6-(1H-imidazol-1-yl)-N-((1r,4r)-4-(2-methoxyethoxy)cyclohexyl)-picolinamide] | 16
COCCO[C@H]1CC[C@H](NC(=O)c2cc(C)cc(-n3ccnc3)n2)CC1 [Ex. 29, 6-(1H-imidazol-1-yl)-N-((1r,4r)-4-(2-methoxyethoxy)cyclohexyl)-4-methylpicolinamide] | 31
O=C(N[C@H]1CC[C@H](O)CC1)c1ccnc(-n2ccnc2)n1 [Ex. 34, N-((1r,4r)-4-hydroxycyclohexyl)-2-(1H-imidazol-1-yl)pyrimidine-4-carboxamide] | 25.7
COCCO[C@H]1CC[C@H](NC(=O)c2cc(-c3cnn(C)c3)cc(-c3cncs3)n2)CC1 [Ex. 8, N-((1r,4r)-4-(2-methoxyethoxy)cyclohexyl)-4-(1-methyl-1H-pyrazol-4-yl)-6-(thiazol-5-yl)picolinamide] | 286
COCCO[C@H]1CC[C@H](NC(=O)c2cccc(-n3ccnc3)n2)CC1 [Ex 11, 6-(1H-imidazol-1-yl)-N-((1r,4r)-4-(2-methoxyethoxy)cyclohexyl)picolinamide] | 49
COCCO[C@H]1CC[C@H](NC(=O)c2cccc(-c3cncs3)n2)CC1 [Ex. 9, N-((1r,4r)-4-(2-methoxyethoxy)cyclohexyl)-6-(thiazol-5-yl)picolinamide] | 10000

Second part, the molecule after the results:

IC50 [nM] | Structure (SMILES)
21 | COCCO[C@H]1CC[C@H](NC(=O)c2cc(-c3cnn(C)c3)nc(-n3ccnc3)c2)CC1 [Ex. 23, 2-(1H-imidazol-1-yl)-N-((1r,4r)-4-(2-methoxyethoxy)cyclohexyl)-6-(1-methyl-1H-pyrazol-4-yl)isonicotinamide]
16.5 | CCO[C@H]1CC[C@H](NC(=O)c2ccnc(-n3ccnc3)n2)CC1 [Ex. 58, N-((1r,4r)-4-ethoxycyclohexyl)-2-(1H-imidazol-1-yl)pyrimidine-4-carboxamide]
20.9 | COCCO[C@H]1CC[C@H](NC(=O)c2cc(C(F)F)cc(-n3ccnc3)n2)CC1 [Ex. 59, 4-(difluoromethyl)-6-(1H-imidazol-1-yl)-N-((1r,4r)-4-(2-methoxyethoxy)cyclohexyl)picolinamide]
17 | COCCO[C@H]1CC[C@H](NC(=O)c2cc(CF)nc(-n3ccnc3)n2)CC1 [Ex. 51, 6-(fluoromethyl)-2-(1H-imidazol-1-yl)-N-((1r,4r)-4-(2-methoxyethoxy)cyclohexyl)pyrimidine-4-carboxamide]
7.4 | COCCO[C@H]1CC[C@H](NC(=O)c2cc(C)nc(-n3ccnc3)n2)CC1 [Ex. 35, 2-(1H-imidazol-1-yl)-N-((1r,4r)-4-(2-methoxyethoxy)cyclohexyl)-6-methylpyrimidine-4-carboxamide]
16 | O=C(N[C@H]1CC[C@H](OC(F)F)CC1)c1ccnc(-n2ccnc2)n1 [Ex. 41, N-((1r,4r)-4-(difluoromethoxy)cyclohexyl)-2-(1H-imidazol-1-yl)pyrimidine-4-carboxamide]
